Data from patent US20190336486A1, “METHODS FOR TREATING CANCER AND METABOLIC SYNDROME” (GLAX LLC, priority 2018, published 2019).

What was measured:
Format in all cases: cell-based
[1] = tested on: glioblastoma cell lines; test: Cell proliferation of glioblastoma cell lines (FIG. 7)
[2] = tested on: brain CSCs; test: Cell proliferation of brain CSCs (FIG. 7)
[3] = tested on: human normal lung epithelial cells (Beas 2B); test: Cell proliferation of normal lung epithelial cells (FIG. 9)
[4] = tested on: lung cancer cells; test: Colony formation by lung cancer cells (FIG. 10)
[5] = tested on: colorectal CSCs; test: Cell proliferation of colorectal CSCs (FIG. 11)
[6] = tested on: lung cancer cells (A549); test: Cell proliferation of lung cancer cells (FIG. 9)
[7] = tested on: glioblastoma cells; test: Colony formation by glioblastoma cells (FIG. 8)
[8] = tested on: prostate cancer cells; test: Cell proliferation of prostate cancer cells (FIG. 13)
[9] = tested on: breast cancer cells; test: Cell proliferation of breast cancer cells (FIG. 12)
[10] = tested on: brain CSCs; test: Colony formation by brain CSCs (FIG. 8)

For `Nc1nc(CC(=O)Nc2ccc(CCNC[C@H](O)c3ccccc3)cc2)cs1` [Mirabegron], the cell proliferation [1] was “inhibits cell proliferation”, the cell proliferation [2] was “inhibits cell proliferation” and the cell proliferation [3] was “has no effect”. For the same compound, the colony formation [4] was “inhibits colony formation”, the cell proliferation [5] was “inhibits cell proliferation” and the cell proliferation [6] was “inhibits cell proliferation”. The colony formation [7] was “inhibits colony formation”, the cell proliferation [8] was “inhibits cell proliferation” and the cell proliferation [9] was “inhibits cell proliferation”. For the same compound, the colony formation [10] was “inhibits colony formation”.
